# Data: patent US20090018134A1, “Compounds - 945” (AstraZeneca AB, priority 2007, published 2009)
# Biological target: T1, mTOR (Homo sapiens, UniProt P42345)
# T1 construct: FLAG; made in house
# Experiment: In Vitro mTOR Kinase Assay (Echo), Test (a)(ii)
# Format: biochemical
# Settings: read-out: mTOR Kinase Assay (Echo)
# Method in brief: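 Enzyme: HEK293-expressed, FLAG-purified mTOR C-terminal fragment (aa 1362-2549). Rxn 2 h RT with biotinylated peptide, stopped with EDTA 50 mM/BSA/Tris pH 7.4. Detection: T389 phospho-antibody AlphaScreen, 680 nm excitation. IC50.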
# T1 sequence (P42345 1362-2549): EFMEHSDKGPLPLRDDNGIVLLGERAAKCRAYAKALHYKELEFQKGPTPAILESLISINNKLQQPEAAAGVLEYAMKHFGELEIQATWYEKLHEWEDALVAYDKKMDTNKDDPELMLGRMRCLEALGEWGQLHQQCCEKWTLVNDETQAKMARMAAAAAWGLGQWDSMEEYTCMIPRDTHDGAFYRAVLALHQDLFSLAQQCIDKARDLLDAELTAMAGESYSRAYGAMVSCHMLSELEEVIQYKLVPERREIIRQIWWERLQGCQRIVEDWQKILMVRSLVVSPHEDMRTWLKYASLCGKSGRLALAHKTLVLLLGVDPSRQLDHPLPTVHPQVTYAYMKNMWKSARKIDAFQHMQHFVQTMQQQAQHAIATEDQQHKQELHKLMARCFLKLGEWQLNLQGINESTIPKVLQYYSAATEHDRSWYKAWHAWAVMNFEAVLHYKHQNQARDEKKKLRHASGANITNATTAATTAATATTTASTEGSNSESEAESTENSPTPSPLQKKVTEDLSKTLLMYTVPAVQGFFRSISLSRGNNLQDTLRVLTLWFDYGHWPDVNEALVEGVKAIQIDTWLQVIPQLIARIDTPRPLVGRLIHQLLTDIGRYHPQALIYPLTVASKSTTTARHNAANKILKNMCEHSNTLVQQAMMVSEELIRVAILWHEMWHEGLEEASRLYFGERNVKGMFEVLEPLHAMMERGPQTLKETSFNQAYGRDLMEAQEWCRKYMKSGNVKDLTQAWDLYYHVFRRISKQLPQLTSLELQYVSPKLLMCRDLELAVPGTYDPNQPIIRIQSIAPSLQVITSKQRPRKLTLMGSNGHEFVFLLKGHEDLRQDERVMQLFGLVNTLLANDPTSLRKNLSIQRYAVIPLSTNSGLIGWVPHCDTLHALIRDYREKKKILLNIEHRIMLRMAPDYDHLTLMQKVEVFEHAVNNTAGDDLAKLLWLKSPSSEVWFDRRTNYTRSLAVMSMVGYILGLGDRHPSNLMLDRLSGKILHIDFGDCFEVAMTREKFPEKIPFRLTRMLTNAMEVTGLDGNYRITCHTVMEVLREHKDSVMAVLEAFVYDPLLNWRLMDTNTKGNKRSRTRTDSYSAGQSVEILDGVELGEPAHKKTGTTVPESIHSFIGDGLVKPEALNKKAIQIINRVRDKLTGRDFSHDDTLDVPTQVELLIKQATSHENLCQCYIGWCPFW
row,IC50,Structure (SMILES)
1,1.19 nM,"C[C@H]1COCCN1c1cc(C2(S(=O)(=O)c3ccncc3)CC2)nc(-c2ccc(NC(=O)Nc3cnn(C)c3)cc2)n1 [Example 6l, 1-[4-[4-[(3S)-3-methylmorpholin-4-yl]-6-(1-pyridin-4-ylsulfonylcyclopropyl)pyrimidin-2-yl]phenyl]-3-(1-methylpyrazol-4-yl)urea]"
2,2.34 nM,"CCCNC(=O)Nc1ccc(-c2nc(N3CCOC[C@@H]3C)cc(C3(S(C)(=O)=O)CCC3)n2)cc1 [Example 5h, 1-[4-[4-[(3S)-3-methylmorpholin-4-yl]-6-(1-methylsulfonylcyclobutyl)pyrimidin-2-yl]phenyl]-3-propyl-urea]"
3,11.6 nM,"CC(C)CNC(=O)Nc1ccc(-c2nc(N3CCOC[C@@H]3C)cc(C3(S(C)(=O)=O)CC3)n2)cc1 [Example 2l, 1-[4-[4-[(3S)-3-methylmorpholin-4-yl]-6-(1-methylsulfonylcyclopropyl)pyrimidin-2-yl]phenyl]-3-(2-methylpropyl)urea]"
4,60.5 nM,"CN(C)CCNC(=O)Nc1ccc(-c2nc(N3CCOCC3)cc(C3(S(C)(=O)=O)CC3)n2)cc1 [Example 12f, 3-(2-dimethylaminoethyl)-1-[4-[4-(1-methylsulfonylcyclopropyl)-6-morpholin-4-ylpyrimidin-2-yl]phenyl]urea]"
5,5.93 nM,"C[C@H]1COCCN1c1cc(C2(S(=O)(=O)c3ccncc3)CC2)nc(-c2ccc(NC(=O)NC(C)(C)CO)cc2)n1 [Example 6j, 3-(1-hydroxy-2-methyl-propan-2-yl)-1-[4-[4-[(3S)-3-methylmorpholin-4-yl]-6-(1-pyridin-4-ylsulfonylcyclopropyl)pyrimidin-2-yl]phenyl]urea]"
6,4.37 nM,"CCS(=O)(=O)C1(c2cc(N3CCOC[C@@H]3C)nc(-c3ccc(NC(=O)Nc4cnn(C)c4)cc3)n2)CC1 [Example 11m, 1-[4-[4-(1-ethylsulfonylcyclopropyl)-6-[(3S)-3-methylmorpholin-4-yl]pyrimidin-2-yl]phenyl]-3-(1-methylpyrazol-4-yl)urea]"

# Same assay, conditions: table of enzyme assay Test (a)(ii); read-out: Test (a)(ii) IC50
row,IC50,Structure (SMILES)
1,17.6 nM,"C[C@H]1COCCN1c1cc(C2(S(=O)(=O)c3ccccc3)CC2)nc(-c2ccc(NC(=O)NC3(CO)CC3)cc2)n1 [Example 36bo, 1-[4-[4-[1-(benzenesulfonyl)cyclopropyl]-6-[(3S)-3-methylmorpholin-4-yl]pyrimidin-2-yl]phenyl]-3-[1-(hydroxymethyl)cyclopropyl]urea]"
2,8.18 nM,"CCNC(=O)Nc1ccc(-c2nc(N3CCOC[C@@H]3CC)cc(C3(S(C)(=O)=O)CC3)n2)cc1 [Example 84e, 3-ethyl-1-[4-[4-[(3S)-3-ethylmorpholin-4-yl]-6-(1-methylsulfonylcyclopropyl)pyrimidin-2-yl]phenyl]urea]"
3,2.15 nM,"C[C@H]1COCCN1c1cc(C2(S(=O)(=O)c3ccc(OC(F)F)cc3)CC2)nc(-c2ccc(NC(=O)NCCO)cc2)n1 [Example 64c, 1-[4-[4-[1-[4-(difluoromethoxy)phenyl]sulfonyl-cyclopropyl]-6-[(3S)-3-methylmorpholin-4-yl]pyrimidin-2-yl]phenyl]-3-(2-hydroxyethyl)urea]"
4,2 nM,"CCNC(=O)Nc1ccc(-c2nc(N3CCOC[C@@H]3CC)cc(C3(S(=O)(=O)c4ccccc4)CC3)n2)cc1 [Example 70, 1-[4-[4-[1-(Benzenesulfonyl)cyclopropyl]-6-[(3S)-3-ethylmorpholin-4-yl]pyrimidin-2-yl]phenyl]-3-ethylurea]"
5,26.8 nM,"C[C@H]1COCCN1c1cc(C2(S(=O)(=O)CCCOC(F)F)CC2)nc(-c2ccc(NC(=O)NCC(F)F)cc2)n1 [Example 96b, 3-(2,2-difluoroethyl)-1-[4-[4-[1-[3-(difluoromethoxy)propylsulfonyl]cycloproyl]-6-[(3S)-3-methylmorpholin-4-yl]pyrimidin-2-yl]phenyl]urea]"
6,9.56 nM,"CC[C@H]1COCCN1c1cc(C2(S(C)(=O)=O)CC2)nc(-c2ccc(NC(=O)NC)cc2)n1 [Example 84, 1-[4-[4-[(3S)-3-Ethylmorpholin-4-yl]-6-(1-methylsulfonylcyclopropyl)pyrimidin-2-yl]phenyl]-3-methylurea]"
7,47.2 nM,"C[C@H]1COCCN1c1cc(C2(S(=O)(=O)c3ccncc3)CCC2)nc(-c2ccc(NC(=O)NCc3ncc[nH]3)cc2)n1 [Example 83d, 3-(1H-imidazol-2-ylmethyl)-1-[4-[4-[(3S)-3-methylmorpholin-4-yl]-6-(1-pyridin-4-ylsulfonylcyclobutyl)pyrimidin-2-yl]phenyl]urea]"
8,11.4 nM,"C[C@H](CO)NC(=O)Nc1ccc(-c2nc(N3CCOC[C@@H]3C)cc(C3(S(=O)(=O)c4ccncc4)CCC3)n2)cc1 [Example 83b, 3-[(2R)-1-hydroxypropan-2-yl]-1-[4-[4-[(3S)-3-methylmorpholin-4-yl]-6-(1-pyridin-4-ylsulfonylcyclobutyl)pyrimidin-2-yl]phenyl]urea]"
9,3.11 nM,"C[C@H]1COCCN1c1cc(C2(S(=O)(=O)c3ccccc3)CC2)nc(-c2ccc(NC(=O)Nc3cn(C)cn3)cc2)n1 [Example 36eb, 1-[4-[4-[1-(benzenesulfonyl)cyclopropyl]-6-[(3S)-3-methylmorpholin-4-yl]pyrimidin-2-yl]phenyl]-3-(1-methylimidazol-4-yl)urea]"
10,39.9 nM,"Cc1nn(C(F)F)c(C)c1S(=O)(=O)C1(c2cc(N3CCOC[C@@H]3C)nc(-c3ccc(NC(=O)NCC(F)F)cc3)n2)CC1 [Example 75d, 3-(2,2-difluoroethyl)-1-[4-[4-[1-[1-(difluoromethyl)-3,5-dimethylpyrazol-4-yl]sulfonylcyclopropyl]-6-[(3S)-3-methylmorpholin-4-yl]pyrimidin-2-yl]phenyl]urea]"
11,129 nM,"C[C@H]1COCCN1c1cc(C2(S(=O)(=O)CCCO)CCOCC2)nc(-c2ccc(NC(=O)NC3CC3)cc2)n1 [Example 36cc, 3-cyclopropyl-1-[4-[4-[4-(3-hydroxypropylsulfonyl)oxan-4-yl]-6-[(3S)-3-methylmorpholin-4-yl]pyrimidin-2-yl]phenyl]urea]"
12,27.3 nM,"Cc1cc(F)ccc1S(=O)(=O)C1(c2cc(N3CCOC[C@@H]3C)nc(-c3ccc(NC(=O)Nc4cnn(C)c4)cc3)n2)CC1 [Example 82f, 1-[4-[4-[1-(4-fluoro-2-methylphenyl)sulfonylcyclopropyl]-6-[(3S)-3-methylmorpholin-4-yl]pyrimidin-2-yl]phenyl]-3-(1-methylpyrazol-4-yl)urea]"
13,4.81 nM,"CCNC(=S)Nc1ccc(-c2nc(N3CCOC[C@@H]3C)cc(C3(S(=O)(=O)c4ccccc4)CC3)n2)cc1 [Example 37z, 3-[4-[4-[1-(benzenesulfonyl)cyclopropyl]-6-[(3S)-3-methylmorpholin-4-yl]pyrimidin-2-yl]phenyl]-1-ethylthiourea]"
14,55.5 nM,"C[C@H]1COCCN1c1cc(C2(S(=O)(=O)CCCO)CCC2)nc(-c2ccc(NC(=O)NC(C)(C)CO)cc2)n1 [Example 43p, 3-(1-hydroxy-2-methylpropan-2-yl)-1-[4-[4-[1-(3-hydroxypropylsulfonyl)cyclobu-tyl]-6-[(3S)-3-methylmorpholin-4-yl]pyrimidin-2-yl]phenyl]urea]"
15,10.2 nM,"C[C@H]1COCCN1c1cc(C2(S(=O)(=O)c3ccccc3F)CC2)nc(-c2ccc(NC(=O)NCC3(O)CC3)cc2)n1 [Example 58g, 1-[4-[4-[1-(2-fluorophenyl)sulfonylcyclopropyl]-6-[(3S)-3-methylmorpholin-4-yl]pyrimidin-2-yl]phenyl]-3-[(1-hydroxycyclopropyl)methyl]urea]"
16,33.9 nM,"Cc1nn(C(F)F)c(C)c1S(=O)(=O)C1(c2cc(N3CCOC[C@@H]3C)nc(-c3ccc(NC(=O)NCCO)cc3)n2)CC1 [Example 75c, 1-[4-[4-[1-[1-(difluoromethyl)-3,5-dimethylpyrazol-4-yl]sulfonylcyclopropyl]-6-[(3S)-3-methylmorpholin-4-yl]pyrimidin-2-yl]phenyl]-3-(2-hydroxyethyl)urea]"

# More lines, now with the values behind:
row,Structure (SMILES),IC50
1,"C[C@H]1COCCN1c1cc(C2(S(C)(=O)=O)CC2)nc(-c2ccc(NC(N)=O)cc2)n1 [Example 29, [4-[4-[(3S)-3-Methylmorpholin-4-yl]-6-(1-methylsulfonylcyclopropyl)pyrimidin-2-yl]phenyl]urea]",4.2 nM
2,"CN(C)CCNC(=O)Nc1ccc(-c2nc(N3CCOCC3)cc(C3(S(C)(=O)=O)CC3)n2)cc1 [Example 12f, 3-(2-dimethylaminoethyl)-1-[4-[4-(1-methylsulfonylcyclopropyl)-6-morpholin-4-ylpyrimidin-2-yl]phenyl]urea]",350 nM
3,"C[C@H]1COCCN1c1cc(C2(S(=O)(=O)C(C)(C)C)CC2)nc(-c2ccc(NC(=O)Nc3cnn(C)c3)cc2)n1 [Example 18m, 1-[4-[4-(1-tert-butylsulfonylcyclopropyl)-6-[(3S)-3-methylmorpholin-4-yl]pyrimidin-2-yl]phenyl]-3-(1-methylpyrazol-4-yl)urea]",3.15 nM
4,"C[C@H]1COCCN1c1cc(C2(S(C)(=O)=O)CCNCC2)nc(-c2ccc(NC(=O)NCCN(C)C)cc2)n1 [Example 20b, 3-(2-dimethylaminoethyl)-1-[4-[4-[(3S)-3-methylmorpholin-4-yl]-6-(4-methylsulfonylpiperidin-4-yl)pyrimidin-2-yl]phenyl]urea]",874 nM
5,"C[C@H]1COCCN1c1cc(C2(S(=O)(=O)CCCO)CC2)nc(-c2ccc(NC(=O)NCCCO)cc2)n1 [Example 31i, 3-(3-hydroxypropyl)-1-[4-[4-[1-(3-hydroxypropylsulfonyl)cyclopropyl]-6-[(3S)-3-methylmorpholin-4-yl]pyrimidin-2-yl]phenyl]urea]",3.26 nM
6,"C[C@H]1COCCN1c1cc(C2(S(=O)(=O)CCO)CC2)nc(-c2ccc(NC(=O)NC3(CO)CC3)cc2)n1 [Example 16i, 1-[4-[4-[1-(2-hydroxyethylsulfonyl)cyclopropyl]-6-[(3S)-3-methylmorpholin-4-yl]pyrimidin-2-yl]phenyl]-3-[1-(hydroxymethyl)cyclopropyl]urea]",845 nM
7,"CNC(=O)Nc1ccc(-c2nc(N3CCOC[C@@H]3C)cc(C3(S(=O)(=O)C4CC4)CCNCC3)n2)cc1 [Example 21a, 1-[4-[4-(4-cyclopropylsulfonylpiperidin-4-yl)-6-[(3S)-3-methylmorpholin-4-yl]pyrimidin-2-yl]phenyl]-3-methylurea]",37.8 nM
